Source: patent publication US3948927A, “2,2-Dimethyl-3R-carboxy-6S-amino-1-oxa-4-aza-5R-bicyclo-[3,2,0]heptan-7-o ne” (Queen's University, priority 1974, dated 1976)
In brackets after ≈: the same amount, converted by molar mass. Values belong to the compound of their own block, whether it stands above or below them.

What was measured:
Type in all cases: cell-based
[1] = antibacterial activity (organism not stated); conditions: at levels of 250 mcg./ml.
[2] = tested on: P. morganii and Ps. aeruginosa; experiment: MIC of ampicillin versus resistant or β-lactamase producing bacteria, alone and with substituted azetidine-2-one; conditions: read-out: Minimum Inhibitory Concentration of ampicillin
[3] = tested on: S. lutea; experiment: antibacterial activity vs. S. lutea; conditions: level relative to phthalimidopenicillin
Method: The compound was dissolved in methylene chloride and the solution extracted with 5% sodium bicarbonate. The aqueous extract was re-acidified to pH 2.5 and re-extracted with methylene chloride.
The crystalline trans acid in methylene chloride, was shaken with 5% bicarbonate for 5 min. The aqueous phase was then separated, acidified to pH 4.5 - 5.0 and extracted with methylene chloride. It was then acidifid to pH 2.5 and extracted twice with methylene chloride and twice with chloroform.

[4] = tested on: Pr. morganii; experiment: MIC, antibacterial activity; conditions: Morganella morganii; at 10^-^4 dil'n
[5] = tested on: D. pneumoniae; experiment: MIC, antibacterial activity; conditions: Streptococcus pneumoniae; + 5% serum; 45% AAB at 10^-^3 dil'n + 50% Medium Shown
Source text: (§1) *45% AAB at 10^-^3 dil'n + 50% Medium Shown

[6] = tested on: Str. pyogenes; experiment: MIC, antibacterial activity; conditions: Streptococcus pyogenes; + 5% serum; 45% AAB at 10^-^3 dil'n + 50% Medium Shown
Source text: as §1

[7] = tested on: S. aureus Smith; experiment: MIC, antibacterial activity; conditions: Staphylococcus aureus
[8] = tested on: S. aureus Meth. Resist.; experiment: MIC, antibacterial activity; conditions: Staphylococcus aureus
[9] = tested on: Sal. enteritidis; experiment: MIC, antibacterial activity; conditions: Salmonella enterica, at 10^-^4 dil'n
[10] = tested on: S. aureus; experiment: MIC, antibacterial activity; conditions: Staphylococcus aureus
[11] = tested on: K. pneumoniae; experiment: MIC, antibacterial activity; conditions: Klebsiella pneumoniae; at 10^-^4 dil'n
[12] = tested on: Pr. mirabilis; experiment: MIC, antibacterial activity; conditions: Proteus mirabilis; at 10^-^4 dil'n
[13] = tested on: E. coli Juhl; experiment: MIC, antibacterial activity; conditions: Escherichia coli; at 10^-^4 dil'n
[14] = tested on: Ps. aeruginosa; experiment: MIC, antibacterial activity; conditions: Pseudomonas aeruginosa; at 10^-^4 dil'n
[15] = tested on: E. coli; experiment: MIC, antibacterial activity; conditions: Escherichia coli; at 10^-^4 dil'n
[16] = tested on: Ser. marcescens; experiment: MIC, antibacterial activity; conditions: Serratia marcescens; at 10^-^4 dil'n
[17] = tested on: S. aureus BX-1633-2; experiment: MIC, antibacterial activity; conditions: Staphylococcus aureus

SMILES: CC(C)=C(C(=O)O)N1C(=O)[C@H]2N=C(Cc3ccccc3)O[C@H]21 [oxazoline carboxylic acid, 2-benzyl-6-(1'-carboxy-2'-methylprop-1'-enyl)-1-oxa-3,6-diaza-4S,5R-bicyclo [3,2,0] hept-2-en-7-one]
- activity as an antibacterial agent [1]: inactive

- MIC [2]: 500 to 1000 µg/mL
SMILES: CC1(C)S[C@@H]2[C@H](NC(=O)[C@H](N)c3ccccc3)C(=O)N2[C@H]1C(=O)O [ampicillin]

SMILES: CC1(C)O[C@@H]2[C@H](N3C(=O)c4ccccc4C3=O)C(=O)N2[C@H]1C(=O)O [6-phthalimido oxapenicillin]
- antibacterial activity relative to phthalimidopenicillin [3]: one-tenth the level of phthalimidopenicillin

SMILES: CC1(C)S[C@@H]2[C@H](NC(=O)Cc3ccccc3)C(=O)N2[C@H]1C(=O)O [Penicillin G]
- MIC [4]: > 125 µg/mL
- MIC [5]: 0.004 µg/mL
- MIC [6]: 0.004 µg/mL
- MIC ([7]; at 10^-^4 dil'n): 0.016 µg/mL (≈ 0.0478 µM)
- MIC ([7]; at 10^-^4 dil'n + 5% serum): 0.06 µg/mL
- MIC [8]: 125 µg/mL (≈ 374 µM)
- MIC [9]: 0.13 µg/mL (≈ 0.389 µM)
- MIC ([10]; at 10^-^2 dil'n): > 125 µg/mL
- MIC ([10]; at 10^-^3 dil'n): 63 µg/mL (≈ 188 µM)
- MIC [11]: 2 µg/mL (≈ 5.98 µM)
- MIC [12]: 1 µg/mL (≈ 2.99 µM)
- MIC [13]: 32 µg/mL (≈ 95.7 µM)
- MIC [14]: > 125 µg/mL
- MIC [15]: 125 µg/mL (≈ 374 µM)
- MIC [16]: > 125 µg/mL
- MIC ([17]; BX16332, at 10^-^2 dil'n): > 125 µg/mL
- MIC ([17]; BX16332, at 10^-^3 dil'n): 125 µg/mL (≈ 374 µM)
